For assay [1], the system named is ETR-056. Description: MIC on MS agar medium, cross-resistance to herbicides. It is filed as cell-based, Nicotiana tabacum. The source says:
(§1) Further, cross-resistance of a resistant strain tolerant to herbicides with various modes of action was examined. Sensitivity to fomesafen (trade mark: FLEX) and oxadiazon (trade mark: RONSTAR), which are photobleaching herbicide and accumulate protoporphyrin IX; pyrazoxyfen (trademark: PAICER) which is a chlorophyll synthesis inhibitor and causes bleaching; DPX-84 and bialaphos (trademark: BASTA) and glyphosate (trademark: ROUNDUP) which are an inhibitor of the amino acid synthesis; butachlor (trademark: MACHETE) which is a protein synthesis inhibitor; propanil (trademark: STAM) which is an inhibitor of light synthesis photochemical system II and paraquat (trademark: PREEGLOX) which is an inhibitor of photosystem I and produces an active oxygen was compared. Into MS agar medium containing each herbicides, each resistant strain was transplanted and minimum inhibition concentration (MIC) was measured. […] From the above results, ETR-056 was thought to have resistance to an active oxygen caused by overproduction of superoxide dismutase, and ETR-253 was thought to have resistance to many herbicides caused by decreasing of a membrane permeability, and ETR-245 was thought to have resistance caused by mutation of a target enzyme or overproduction of a target enzyme.
(§2) MIC of compound A to the sensitive cell lines, ETR-056, ETR-245 and ETR-253 were measured.

Assay [2] deals with ETR-245. The description is as above. It is filed as cell-based, Nicotiana tabacum.
Text: as §1, §2

For assay [3], the system named is ETR-253. The description is as above. The format is cell-based, Nicotiana tabacum.
Text: as §1, §2

Assay [4] has as its system Sensitive strain. The description is as above. It is filed as cell-based, Nicotiana tabacum. The note with it: sensitive cell line.
Text: as §1, §2

In assay [5] the test system is transformed tobacco plant, Tobacco resistant type (pBI-NtPX-RC). The assay can be described thus: Leaf disk method, bleaching. It is filed as cell-based, N. Tabacum var. SR1. The protocol:
The A. tumefacience having the binary vector which had been stored at −80° C. was cultured with shaking at 27° C. for 24 hours in 523 liquid medium (1% sucrose, 0.8% Bacto-tryptone, 0.4% Bacto-yeast extract, 0.2% K2HPO4, 0.03% MgSO4.7H2O) containing kanamycin. A disk (9 mm diameter) of a tobacco (N. Tabacum var. SR1) leaf which had been surface sterilized was immersed for one minute into the culture of the A. tumefacience, and then the culture liquid attached thereon was removed with a sterilized paper towel. The leaf disk was transferred into MS agar medium containing 0.6% agar in which 2 ppm NAA and 0.2 ppm BA were added, with the reverse side of leaf being made upside, and incubated at 25° C. for 48 hours. The leaf disk was transferred into MS liquid medium containing 500 ppm carbenicillin, 200 ppm claforan, 2 ppm NAA and 0.2 ppm BA and cultured with shaking at 27° C. for 48-72 hours to remove A. tumefacience. The leaf disk was transferred into MS liquid medium containing 0.6% agar, 100 ppm of carbenycillin, 200 ppm of claforan and 150 ppm of kanamycin, 2 ppm NAA and 0.2 ppm BA and incubated at 27° C. for 2-3 weeks and formation of shoot was induced. The shoot was transferred into medium for root development (½ MS, 0.02 ppm IBA, 1.5% sucrose, 0.2% gellan gum) and development of root was introduced. The young plant thus obtained was transferred into culture soil, and was grown in a green house.
From the transformed plant with which the confirmation of introduction of gene was finished, and non-transformed plant used as a control, a leaf almost the same position of the leaf was picked and 9 mm diameter leaf disks were prepared, and floated on a dish in which 0, 125, 250, 1,250, 2,500, 5,000, 12,500 nM of compound A aqueous solution were contained. After incubation at 27° C. for one week under continuous strong light, the bleaching of the leaf disks was observed, and the permissive concentration to compound A was calculated. As a result (Table 7), in case that the tolerant type of protoporphirinogen oxidase cDNA from tobacco was introduced by pBI-NtPX-RC, more than 100 times of tolerance was observed comparing to the control non-transformed plant. However, in case that rsistant type cDNA from Arabidopsis thaliana was introduced by pBI-AtPX-RC, 4 times of resistance was observed comparing to the control, and in case that the wild type cDNA was introduced, high resistance was not observed in each case.

Here are results for one compound from patent US6905852B1, “Herbicide-resistant protoporphyrinogen oxidase isolated from Nicotiana tabacum” (Nihon Nohyaku Co., Ltd., priority 1997, dated 2005).

Converted amounts (≈) assume the structure as drawn.

Regarding `CCOC(=O)COc1cc(-c2nn(C)c(OC(F)F)c2Cl)c(F)cc1Cl` [Compound A, ethyl 2-chloro-5-(4-chloro-5-difluoromethoxy-1-methyl-1H-pyrazol-3-yl)-4-fluorophenoxyacetate], the MIC result was “over 2,400 nM” in assay [1], “over 2,400 nM” in assay [2], “over 2,400 nM” in assay [3] and 5 nM (≈ 2.07 ng/mL) in assay [4]. Moreover, in assay [5], the “Permission conc. to compound A” value is recorded as >12,500 nM.
